Test results taken from PubChem BioAssay (NCI).
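Compound exposure: 48 hours, 5 concentrations, 96-well plates. GI50 marks 50% less growth. Definition used: TGI = concentration required for complete inhibition of growth.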

Columns and labels:
Assay in all cases: NCI tumour cell line growth inhibition, 48 h
LXFL 529 NSCLC = test system: LXFL 529 NSCLC
HCC-2998 colon = test system: HCC-2998 colon
MALME-3M melanoma = test system: MALME-3M melanoma
OVCAR-5 ovarian = test system: OVCAR-5 ovarian
OVCAR-8 ovarian = test system: OVCAR-8 ovarian
KM20L2 colon = test system: KM20L2 colon
NCI/ADR-RES ovarian = test system: NCI/ADR-RES ovarian
SNB-19 CNS = test system: SNB-19 CNS
SK-MEL-28 melanoma = test system: SK-MEL-28 melanoma
SF-268 CNS = test system: SF-268 CNS

N#CC1C[C@@H]2CC3(CCC2CN1C(=O)c1ccccc1)OCCO3 (stereo not given in full)
TGI (LXFL 529 NSCLC): > 100 µM | TGI (HCC-2998 colon): > 100 µM | TGI (MALME-3M melanoma): > 100 µM | TGI (OVCAR-5 ovarian): > 100 µM | TGI (OVCAR-8 ovarian): > 100 µM | TGI (KM20L2 colon): > 100 µM | GI50 (NCI/ADR-RES ovarian): > 100 µM | TGI (NCI/ADR-RES ovarian): > 100 µM | TGI (SNB-19 CNS): > 100 µM | TGI (SK-MEL-28 melanoma): > 100 µM | TGI (SF-268 CNS): > 100 µM

CN1C(=O)CC2(C)c3cc(O)cc(Br)c3N(C)C12 (stereo not given)
TGI (LXFL 529 NSCLC): > 100 µM | TGI (HCC-2998 colon): > 100 µM | TGI (MALME-3M melanoma): > 100 µM | TGI (OVCAR-5 ovarian): > 100 µM | TGI (OVCAR-8 ovarian): > 100 µM | TGI (KM20L2 colon): > 100 µM | TGI (SNB-19 CNS): > 100 µM | TGI (SK-MEL-28 melanoma): > 100 µM | TGI (SF-268 CNS): > 100 µM

C/C(CCn1[nH]c(=O)ccc1=O)=N\NC(=O)C(N)=O
TGI (LXFL 529 NSCLC): > 100 µM | TGI (HCC-2998 colon): > 100 µM | TGI (MALME-3M melanoma): > 100 µM | TGI (OVCAR-5 ovarian): > 100 µM | TGI (OVCAR-8 ovarian): > 100 µM | TGI (KM20L2 colon): > 100 µM | TGI (SNB-19 CNS): > 100 µM | TGI (SK-MEL-28 melanoma): > 100 µM | TGI (SF-268 CNS): > 100 µM

COc1cc2c(cc1OC)C(C#N)N(C(=O)c1ccccc1)C=C2OC(=O)c1ccccc1 (stereo not given)
TGI (LXFL 529 NSCLC): 42.5 µM | TGI (HCC-2998 colon): > 100 µM | TGI (MALME-3M melanoma): 50.2 µM | TGI (OVCAR-5 ovarian): > 100 µM | TGI (OVCAR-8 ovarian): 71.8 µM | TGI (KM20L2 colon): > 100 µM | TGI (SNB-19 CNS): 67.5 µM | TGI (SK-MEL-28 melanoma): 58.1 µM | TGI (SF-268 CNS): 86 µM

Cc1cc(=O)[nH]c(CNC(=O)c2ccc3ccccc3c2)n1
TGI (LXFL 529 NSCLC): > 100 µM | TGI (HCC-2998 colon): > 100 µM | TGI (MALME-3M melanoma): > 100 µM | TGI (OVCAR-5 ovarian): > 100 µM | TGI (OVCAR-8 ovarian): > 100 µM | TGI (KM20L2 colon): > 100 µM | TGI (SNB-19 CNS): > 100 µM | TGI (SK-MEL-28 melanoma): > 100 µM | TGI (SF-268 CNS): > 100 µM

CCc1ccccc1NC(=O)C(=O)C(C#N)c1ccccc1Cl (stereo not given)
TGI (LXFL 529 NSCLC): > 100 µM | TGI (HCC-2998 colon): > 100 µM | TGI (MALME-3M melanoma): > 100 µM | TGI (OVCAR-5 ovarian): > 100 µM | TGI (OVCAR-8 ovarian): > 100 µM | TGI (KM20L2 colon): > 100 µM | TGI (SNB-19 CNS): > 100 µM | TGI (SK-MEL-28 melanoma): > 100 µM | TGI (SF-268 CNS): > 100 µM

O=C(COc1ccccc1Cl)N1N=C(c2ccccc2)CC1(O)c1ccccc1 (stereo not given)
TGI (LXFL 529 NSCLC): > 100 µM | TGI (HCC-2998 colon): 33.6 µM | TGI (MALME-3M melanoma): 31.7 µM | TGI (OVCAR-5 ovarian): 33.5 µM | TGI (OVCAR-8 ovarian): 32.1 µM | TGI (KM20L2 colon): 29.6 µM | TGI (SNB-19 CNS): 45.4 µM | TGI (SK-MEL-28 melanoma): 31.7 µM | TGI (SF-268 CNS): > 100 µM
